# Reference: US7098340B2, “Benzyl sulfonamide derivatives” (Warner Lambert Company LLC, priority 2003, dated 2006)
# Target: T1, androgen receptor (Homo sapiens, UniProt P10275)
# T1 sequence (P10275 1-920 Q868H): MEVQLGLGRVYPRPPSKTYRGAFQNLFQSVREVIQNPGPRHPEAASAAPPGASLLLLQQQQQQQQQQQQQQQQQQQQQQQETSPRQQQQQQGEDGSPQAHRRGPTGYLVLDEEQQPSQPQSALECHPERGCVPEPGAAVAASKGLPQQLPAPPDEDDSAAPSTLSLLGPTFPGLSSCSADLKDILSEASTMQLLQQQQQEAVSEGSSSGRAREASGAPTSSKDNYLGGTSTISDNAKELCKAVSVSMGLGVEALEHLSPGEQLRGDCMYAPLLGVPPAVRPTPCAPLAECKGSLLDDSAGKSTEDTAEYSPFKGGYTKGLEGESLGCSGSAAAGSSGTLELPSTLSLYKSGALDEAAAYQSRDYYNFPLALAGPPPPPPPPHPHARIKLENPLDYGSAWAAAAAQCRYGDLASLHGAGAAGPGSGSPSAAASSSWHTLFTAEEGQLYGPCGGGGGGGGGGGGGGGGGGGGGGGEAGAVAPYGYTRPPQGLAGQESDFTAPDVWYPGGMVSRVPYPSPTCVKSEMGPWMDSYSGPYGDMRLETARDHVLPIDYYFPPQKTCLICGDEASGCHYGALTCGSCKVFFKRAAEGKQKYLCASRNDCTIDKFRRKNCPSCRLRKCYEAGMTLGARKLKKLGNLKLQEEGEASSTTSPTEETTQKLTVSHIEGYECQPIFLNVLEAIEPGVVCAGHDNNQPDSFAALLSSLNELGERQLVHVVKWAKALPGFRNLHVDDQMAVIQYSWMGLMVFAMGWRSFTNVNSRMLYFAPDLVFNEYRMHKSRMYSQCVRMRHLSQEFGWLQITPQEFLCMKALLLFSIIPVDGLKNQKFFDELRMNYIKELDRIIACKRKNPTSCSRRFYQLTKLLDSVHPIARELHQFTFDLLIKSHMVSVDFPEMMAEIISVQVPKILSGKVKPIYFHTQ
# Assay: AR Antagonist Cell Assay (MMTV-luciferase reporter, DHT-stimulated)
# Assay type: cell-based
# Conditions: MDA-MB453-MMTV clone 54-19 cells; antagonism of 100 pM DHT, 17 hr, luciferase readout
# Outline: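 MDA-MB453 cells stably carrying MMTV-ARE-firefly luciferase, in 1% charcoal-treated serum, preincubated 30 min with compound (10 uM or 1 uM) then stimulated with 100 pM DHT for 17 h at 37° C. Luminescence read; result as % inhibition of DHT fold induction.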
row,SMILES,IC50
1,"O=c1cc(C(F)(F)F)c2cc(Cc3ccc(S(=O)(=O)NC4(CO)CCCC4)cc3)ccc2o1 [Example 167, N-(1-Hydroxymethyl-cyclopentyl)-4-(2-oxo-4-trifluoromethyl-2H-chromen-6-ylmethyl)benzenesulfonamide]",> 10 µM
2,"O=c1cc(C(F)(F)F)c2cc(Cc3ccc(S(=O)(=O)NCCc4ccccc4)cc3)ccc2[nH]1 [Example 57, 4-(2-Oxo-4-trifluoromethyl-1,2-dihydroquinolin-6-ylmethyl)-N-phenethylbenzenesulfonamide]",> 10 µM
3,"O=c1cc(C(F)(F)F)c2cc(Cc3ccc(S(=O)(=O)Nc4cc(-c5ccccc5)n[nH]4)cc3)ccc2[nH]1 [Example 37, 4-(2-Oxo-4-trifluoromethyl-1,2-dihydroquinolin-6-ylmethyl)-N-(5-phenyl-2H-pyrazol-3-yl)-benzenesulfonamide]",> 10 µM
4,"O=c1cc(C(F)(F)F)c2cc(Cc3ccc(S(=O)(=O)Nc4cccc5ncccc45)cc3)ccc2[nH]1 [Example 29, 4-(2-Oxo-4-trifluoromethyl-1,2-dihydroquinolin-6-ylmethyl)-N-quinolin-5-ylbenzenesulfonamide]",> 10 µM
5,"CCCCN(C)S(=O)(=O)c1ccc(Cc2ccc3oc(=O)cc(C(F)(F)F)c3c2)cc1 [Example 107, N-Butyl-N-methyl-4-(2-oxo-4-trifluoromethyl-2H-chromen-6-ylmethyl)benzenesulfonamide]",3.45 µM
6,"O=c1cc(C(F)(F)F)c2cc(Cc3ccc(S(=O)(=O)NCc4ccc5c(c4)CCO5)cc3)ccc2o1 [Example 189, N-(2,3-Dihydrobenzofuran-5-ylmethyl)-4-(2-oxo-4-trifluoromethyl-2H-chromen-6-ylmethyl)benzenesulfonamide]",2.51 µM
7,"O=c1cc(C(F)(F)F)c2cc(Cc3ccc(S(=O)(=O)NC4CCCC4)cc3)ccc2o1 [Example 158, N-Cyclopentyl-4-(2-oxo-4-trifluoromethyl-2H-chromen-6-ylmethyl)benzenesulfonamide]",6.5 µM
8,"CN(C1CCCCC1)S(=O)(=O)c1ccc(Cc2ccc3oc(=O)cc(C(F)(F)F)c3c2)cc1 [Example 106, N-Cyclohexyl-N-methyl-4-(2-oxo-4-trifluoromethyl-2H-chromen-6-ylmethyl)-benzenesulfonamide]",> 10 µM
9,"O=c1cc(C(F)(F)F)c2cc(Cc3ccc(S(=O)(=O)Nc4ccccc4N4CCCCC4)cc3)ccc2[nH]1 [Example 41, 4-(2-Oxo-4-trifluoromethyl-1,2-dihydroquinolin-6-ylmethyl)-N-(2-piperidin-1-ylphenyl)-benzenesulfonamide]",> 10 µM
10,"CSc1n[nH]c(NS(=O)(=O)c2ccc(Cc3ccc4oc(=O)cc(C(F)(F)F)c4c3)cc2)c1C#N [Example 138, N-(4-Cyano-5-methylsulfanyl-2H-pyrazol-3-yl)-4-(2-oxo-4-trifluoromethyl-2H-chromen-6-ylmethyl)benzenesulfonamide]",1.9 µM
11,"O=c1cc(C(F)(F)F)c2cc(Cc3ccc(S(=O)(=O)NCC4CCCC[C@H]4O)cc3)ccc2o1 (stereo in doubt) [Example 177, N-(2-Hydroxycyclohexylmethyl)-4-(2-oxo-4-trifluoromethyl-2H-chromen-6-ylmethyl)benzenesulfonamide]",5.77 µM
12,"O=c1cc(C(F)(F)F)c2cc(Cc3ccc(S(=O)(=O)NCC(c4ccccc4)c4ccccc4)cc3)ccc2[nH]1 [Example 92, N-(2,2-Diphenylethyl)-4-(2-oxo-4-trifluoromethyl-1,2-dihydroquinolin-6-ylmethyl)-benzenesulfonamide]",2.71 µM
13,"O=c1cc(C(F)(F)F)c2cc(Cc3ccc(S(=O)(=O)Nc4cccc5cccnc45)cc3)ccc2[nH]1 [Example 30, 4-(2-Oxo-4-trifluoromethyl-1,2-dihydroquinolin-6-ylmethyl)-N-quinolin-8-ylbenzenesulfonamide]",> 10 µM
14,"COc1cc(CNS(=O)(=O)c2ccc(Cc3ccc4[nH]c(=O)cc(C(F)(F)F)c4c3)cc2)cc(OC)c1 [Example 80, N-(3,5-Dimethoxybenzyl)-4-(2-oxo-4-trifluoromethyl-1,2-dihydroquinolin-6-ylmethyl)-benzenesulfonamide]",> 10 µM
15,"Cc1ccc(F)cc1CNS(=O)(=O)c1ccc(Cc2ccc3[nH]c(=O)cc(C(F)(F)F)c3c2)cc1 [Example 67, N-(5-Fluoro-2-methylbenzyl)-4-(2-oxo-4-trifluoromethyl-1,2-dihydroquinolin-6-ylmethyl)-benzenesulfonamide]",8.23 µM
16,"O=c1cc(C(F)(F)F)c2cc(Cc3ccc(S(=O)(=O)Nc4cccc(C(F)(F)F)c4)cc3)ccc2[nH]1 [Example 39, 4-(2-Oxo-4-trifluoromethyl-1,2-dihydroquinolin-6-ylmethyl)-N-(3-trifluoromethylphenyl)-benzenesulfonamide]",> 10 µM
17,"CCCN(CCO)S(=O)(=O)c1ccc(Cc2ccc3oc(=O)cc(C(F)(F)F)c3c2)cc1 [Example 102, N-(2-Hydroxyethyl)-4-(2-oxo-4-trifluoromethyl-2H-chromen-6-ylmethyl)-N-propylbenzenesulfonamide]",2.91 µM
18,"CC(C)N(C)S(=O)(=O)c1ccc(Cc2ccc3oc(=O)cc(C(F)(F)F)c3c2)cc1 [Example 101, N-Isopropyl-N-methyl-4-(2-oxo-4-trifluoromethyl-2H-chromen-6-ylmethyl)-benzenesulfonamide]",2.65 µM

# More lines, now with the values ahead:
row,IC50,SMILES
1,3.13 µM,"CCOC(=O)Cc1ccc(NS(=O)(=O)c2ccc(Cc3ccc4oc(=O)cc(C(F)(F)F)c4c3)cc2)cc1 [Example 148, {4-[4-(2-Oxo-4-trifluoromethyl-2H-chromen-6-ylmethyl)-benzenesulfonylamino]-phenyl}acetic acid ethyl ester]"
2,6.91 µM,"CC(O)c1cccc(NS(=O)(=O)c2ccc(Cc3ccc4oc(=O)cc(C(F)(F)F)c4c3)cc2)c1 (stereo not drawn) [Example 133, N-[3-(1-Hydroxyethyl)phenyl]-4-(2-oxo-4-trifluoromethyl-2H-chromen-6-ylmethyl)-benzenesulfonamide]"
3,2.03 µM,"Cc1ccc2cc(NS(=O)(=O)c3ccc(Cc4ccc5oc(=O)cc(C(F)(F)F)c5c4)cc3)ccc2n1 [Example 139, N-(2-Methylquinolin-6-yl)-4-(2-oxo-4-trifluoromethyl-2H-chromen-6-ylmethyl)-benzenesulfonamide]"
4,> 10 µM,"O=c1cc(C(F)(F)F)c2cc(Cc3ccc(S(=O)(=O)Nc4cccc(Cc5ccccc5)c4)cc3)ccc2[nH]1 [Example 43, N-(3-Benzylphenyl)-4-(2-oxo-4-trifluoromethyl-1,2-dihydroquinolin-6-ylmethyl)-benzenesulfonamide]"
5,1.72 µM,"O=c1cc(C(F)(F)F)c2cc(Cc3ccc(S(=O)(=O)Nc4cccc(C(F)(F)F)c4)cc3)ccc2o1 [Example 145, 4-(2-Oxo-4-trifluoromethyl-2H-chromen-6-ylmethyl)-N-(3-trifluoromethylphenyl)-benzenesulfonamide]"
6,5.93 µM,O=c1cc(C(F)(F)F)c2cc(Cc3ccc(S(=O)(=O)NCc4ccc(F)cc4Cl)cc3)ccc2o1 [Example 198]
7,6.06 µM,"COc1ccc(N(Cc2ccccc2)S(=O)(=O)c2ccc(Cc3ccc4oc(=O)cc(C(F)(F)F)c4c3)cc2)cc1 [Example 154, N-Benzyl-N-(4-methoxyphenyl)-4-(2-oxo-4-trifluoromethyl-2H-chromen-6-ylmethyl)benzenesulfonamide]"
8,0.77 µM,"O=c1cc(C(F)(F)F)c2cc(Cc3ccc(S(=O)(=O)Nc4cccc(OCc5ccccc5)c4)cc3)ccc2o1 [Example 152, N-(3-Benzyloxyphenyl)-4-(2-oxo-4-trifluoromethyl-2H-chromen-6-ylmethyl)-benzenesulfonamide]"
9,> 10 µM,"O=c1cc(C(F)(F)F)c2cc(Cc3ccc(S(=O)(=O)Nc4ccc5ncccc5c4)cc3)ccc2o1 [Example 125, 4-(2-Oxo-4-trifluoromethyl-2H-chromen-6-ylmethyl)-N-quinolin-6-ylbenzenesulfonamide]"
10,5.41 µM,"COc1ccccc1CCNS(=O)(=O)c1ccc(Cc2ccc3oc(=O)cc(C(F)(F)F)c3c2)cc1 [Example 190, N-[2-(2-Methoxyphenyl)ethyl]-4-(2-oxo-4-trifluoromethyl-2H-chromen-6-ylmethyl)benzenesulfonamide]"
11,4.66 µM,"C[C@H](NS(=O)(=O)c1ccc(Cc2ccc3oc(=O)cc(C(F)(F)F)c3c2)cc1)c1ccccc1 [Example 172, 4-(2-Oxo-4-trifluoromethyl-2H-chromen-6-ylmethyl)-N-(1-phenylethyl)-benzenesulfonamide]"
12,3.17 µM,"O=c1cc(C(F)(F)F)c2cc(Cc3ccc(S(=O)(=O)Nc4ccccc4CO)cc3)ccc2o1 [Example 121, N-(2-Hydroxymethylphenyl)-4-(2-oxo-4-trifluoromethyl-2H-chromen-6-ylmethyl)-benzenesulfonamide]"
